The values that follow come from patent publication US11571467B2, “Dodecafluoropentane emulsion as a stroke and ischemia therapy” (The Board of Trustees of the University of Arkansas, priority 2011, dated 2023).

By half-life is commonly meant how long it takes for the measured level to halve. As usually defined, the clearance is the volume of plasma or blood freed of the substance per unit of time. A higher clearance goes with a high capacity for elimination.

Like-named read-outs stand apart in the source and are kept apart here.

Data set [1] is described as follows: Pharmacokinetic study, DDFP blood levels by headspace GC-MS. The data set is classed as in vivo, New Zealand White rabbits. As for the experimental part:
Pharmacokinetic study. In alert New Zealand White rabbits (5.1±0.5 kg; N=8), cannulae were placed in a vein of one ear and in an artery of the other ear. After intravenous injection of DDFPe (0.6 ml/kg in a 2% w/v emulsion) arterial blood samples were taken over a period of 4 to 7 h. The dose of DDFPe was repeated every 90 min in four animals. Samples were stored at −20° C. until they were analyzed for DDFP content by a headspace gas chromatograph-mass spectrometer (Varian TSQ).
Because infarct volumes were not normally distributed, ranks of infarct volume were analyzed with PROC GLM of SAS software (Kruskal-Wallis equivalent). Blood levels of DDFP were analyzed for exponential curve fit and exponential decay time constant using KaleidaGraph software v4.01 (2005). Values are given as mean±standard error.

The conditions of data set [2]: in the liquid PFC; cited from earlier work.
The conditions of data set [3]: cited from earlier work.

Consider `FC(F)(F)C(F)(F)C(F)(F)C(F)(F)C(F)(F)F` [DDFP, dodecafluoropentane], for which the half-life worked out at 1.68 min in data set [1] (New Zealand White, rabbit, arterial whole blood, intravenous, FIG. 15, 0.6 ml/kg of 2% w/v emulsion, read-out: half-life in blood, representative rabbit) and 1.45 ± 0.17 min in data set [1] (New Zealand White, rabbit, arterial whole blood, single DDFPe dose of 0.6 ml/kg IV, N=4, read-out: mean half-life in blood). In data set [1] (New Zealand White, rabbit, arterial whole blood, single DDFPe dose of 0.6 ml/kg IV), the clearance was 78.5 ± 24.9 mL/min/kg. Moreover, the “time for blood level to return to the baseline level after each dose” value in data set [1] (multiple doses at 90 min intervals) is recorded as “less than 30 min”. For the same molecule, in data set [1] (single DDFPe dose of 0.6 ml/kg IV), the “time for blood levels to reach non-detectable levels” value is recorded as at most 30 min. The accumulation in blood result in data set [1] (up to five doses of 0.6 ml/kg at 90 min intervals) was “no sign of accumulation”. The solubility of oxygen in data set [2] was 80 % v/v. In addition, the half-life in blood in data set [3] (humans, previous study) was 2.2 ± 1.2 min. Moreover, the “half-life in the blood” value in data set [3] (intravenous administration) was 2 min. Also, in data set [3] (within 2 hours after single intravenous dose), the “DDFP cleared through the lungs / recovered from expired air” value was 99%.

Regarding `FC1(F)C(F)(F)C(F)(F)C2(F)C(F)(F)C(F)(F)C(F)(F)C(F)(F)C2(F)C1(F)F` (stereo not drawn) [PFD, perfluorodecalin], the solubility of oxygen in data set [2] is listed as 42 % v/v.

Regarding `FC(F)(F)C(F)(F)C(F)(F)C(F)(F)C(F)(F)C(F)(F)C(F)(F)C(F)(F)Br` [PFOB, perfluorooctylbromide], in data set [2], the solubility of oxygen was 50 % v/v.
